# Source: patent US20240247015A1, “PHOSPHORUS DERIVATIVES AS NOVEL SOS1 INHIBITORS” (BAYER AKTIENGESELLSCHAFT, priority 2021, published 2024)
# Molecular target: interaction of human SOS1 (SOS1) with human K-RasG12C (Homo sapiens (Human), UniProt Q07889)
# Assay: Biochemical assay: hK-RasG12C interaction assay with hSOS1 (HTRF)
# Format: binding
# Details: GST-hK-RasG12C with His-hSOS1, 60 min incubation at 20° C., mean, read-out: K-RasG12C - SOS interaction assay IC50 (mean)
# Summary of the method: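 Compounds, duplicates at 11 concentrations from 0.073 nM to 20 µM, were preincubated 2 min with 10 nM GST-hK-RasG12C, then 20 nM His-hSOS1 was added, all at 20 °C. After 60 min, 665/620 nm HTRF ratio normalized to DMSO and SOS1-free controls; IC50 by 4-parameter fit.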
# Chain of interaction of human SOS1 (SOS1) with human K-RasG12C (Q07889 564-1049 limits assumed): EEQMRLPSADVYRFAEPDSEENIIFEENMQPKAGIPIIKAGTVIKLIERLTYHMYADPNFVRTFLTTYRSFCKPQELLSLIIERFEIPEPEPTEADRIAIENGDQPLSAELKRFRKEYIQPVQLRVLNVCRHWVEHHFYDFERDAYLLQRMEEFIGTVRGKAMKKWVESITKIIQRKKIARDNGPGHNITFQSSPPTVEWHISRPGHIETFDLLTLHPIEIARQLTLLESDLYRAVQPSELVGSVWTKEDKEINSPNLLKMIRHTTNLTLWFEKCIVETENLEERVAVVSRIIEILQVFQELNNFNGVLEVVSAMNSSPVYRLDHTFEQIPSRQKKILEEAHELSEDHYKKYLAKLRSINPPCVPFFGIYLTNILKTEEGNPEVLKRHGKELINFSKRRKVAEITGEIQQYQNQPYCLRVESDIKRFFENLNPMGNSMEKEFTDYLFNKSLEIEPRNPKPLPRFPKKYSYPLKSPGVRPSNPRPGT
row,Structure (SMILES),IC50 [nM]
1,"Cc1nc(N[C@H](C)c2cccc(C(F)(F)F)c2C)c2cc(P(C)(C)=O)c(C(F)(F)F)nc2n1 [Example 22, 6-(dimethylphosphoryl)-2-methyl-N-{(1R)-1-[2-methyl-3-(trifluoromethyl)phenyl]ethyl}-7-(trifluoromethyl)pyrido[2,3-d]pyrimidin-4-amine]",18.7
2,"Cc1nc(N[C@H](C)c2cccc(C(F)(F)C(C)(C)O)c2F)c2cc(P(C)(C)=O)nc(O)c2n1 [Example 26, 4-({(1R)-1-[3-(1,1-difluoro-2-hydroxy-2-methylpropyl)-2-fluorophenyl]ethyl}amino)-6-(dimethylphosphoryl)-2-methylpyrido[3,4-d]pyrimidin-8-ol]",9.18
3,"CC(=O)N1CCP(=O)(c2cc3c(N[C@H](C)c4cccc(C(F)(F)F)c4C)nc(C)nc3c(O)n2)CC1 [Example 30, 1-acetyl-4-[8-hydroxy-2-methyl-4-({(1R)-1-[2-methyl-3-(trifluoromethyl)phenyl]ethyl}amino)pyrido[3,4-d]pyrimidin-6-yl]-1,4lambda^5-azaphosphinan-4-one]",1360
4,"Cc1nc(N[C@H](C)c2cccc(C(F)(F)F)c2C)c2cc(P3(=O)CCN(C=O)CC3)ncc2n1 [Example 31, 4-[2-methyl-4-({(1R)-1-[2-methyl-3-(trifluoromethyl)phenyl]ethyl}amino)pyrido[3,4-d]pyrimidin-6-yl]-4-oxo-1,4lambda^5-azaphosphinane-1-carbaldehyde]",6.37
5,"CC(=S)N1CCP(=O)(c2cc3c(N[C@H](C)c4cccc(C(F)(F)F)c4C)nc(C)nc3cn2)CC1 [Example 32, 1-ethanethioyl-4-[2-methyl-4-({(1R)-1-[2-methyl-3-(trifluoromethyl)phenyl]ethyl}amino)pyrido[3,4-d]pyrimidin-6-yl]-1,4lambda^5-azaphosphinan-4-one]",12.2
6,"Cc1nc(N[C@H](C)c2cccc(C(F)(F)CO)c2F)c2cc(P(C)(C)=O)ccc2n1 [Example 33, 2-{3-[(1R)-1-{[6-(dimethylphosphoryl)-2-methylquinazolin-4-yl]amino}ethyl]-2-fluorophenyl}-2,2-difluoroethan-1-ol]",7.06
7,"CC(=O)N1CCP(=O)(c2cc3c(N[C@H](C)c4cccc(C(F)(F)F)c4C)nc(C)nc3c(CO)n2)CC1 [Example 34, 1-acetyl-4-[8-(hydroxymethyl)-2-methyl-4-({(1R)-1-[2-methyl-3-(trifluoromethyl)phenyl]ethyl}amino)pyrido[3,4-d]pyrimidin-6-yl]-1,4lambda^5-azaphosphinan-4-one]",72.8
8,"CC(=O)N1CCP(=O)(c2cc3c(N[C@H](C)c4cccc(C(F)(F)F)c4C)nc(C)nc3c(C3CC3)n2)CC1 [Example 35, 1-acetyl-4-[8-cyclopropyl-2-methyl-4-({(1R)-1-[2-methyl-3-(trifluoromethyl)phenyl]ethyl}amino)pyrido[3,4-d]pyrimidin-6-yl]-1,4lambda^5-azaphosphinan-4-one]",21.5
9,"CC(=O)N1CCP(=O)(c2cc3c(N[C@H](C)c4cccc(C(F)(F)F)c4C)nc(C)nc3c(C(F)F)n2)CC1 [Example 36, 1-acetyl-4-[8-(difluoromethyl)-2-methyl-4-({(1R)-1-[2-methyl-3-(trifluoromethyl)phenyl]ethyl}amino)pyrido[3,4-d]pyrimidin-6-yl]-1,4lambda^5-azaphosphinan-4-one]",16.7
10,"COCc1nc(P2(=O)CCN(C(C)=O)CC2)cc2c(N[C@H](C)c3cccc(C(F)(F)F)c3C)nc(C)nc12 [Example 37, 1-acetyl-4-[8-(methoxymethyl)-2-methyl-4-({(1R)-1-[2-methyl-3-(trifluoromethyl)phenyl]ethyl}amino)pyrido[3,4-d]pyrimidin-6-yl]-1,4lambda^5-azaphosphinan-4-one]",9.69
11,"Cc1nc(N[C@H](C)c2cccc(C(F)(F)F)c2C)c2cc(P3(=O)CCN(c4cnn(C)c4)CC3)ncc2n1 [Example 39, 4-[2-methyl-4-({(1R)-1-[2-methyl-3-(trifluoromethyl)phenyl]ethyl}amino)pyrido[3,4-d]pyrimidin-6-yl]-1-(1-methyl-1H-pyrazol-4-yl)-1,4lambda^5-azaphosphinan-4-one]",11.1
12,"Cc1nc(N[C@H](C)c2cccc(C(F)(F)F)c2C)c2cc(P3(=O)CCN(c4ccn(C)n4)CC3)ncc2n1 [Example 40, 4-[2-methyl-4-({(1R)-1-[2-methyl-3-(trifluoromethyl)phenyl]ethyl}amino)pyrido[3,4-d]pyrimidin-6-yl]-1-(1-methyl-1H-pyrazol-3-yl)-1,4lambda^5-azaphosphinan-4-one]",18.3
13,"Cc1nc(N[C@H](C)c2cccc(C(F)(F)F)c2C)c2cc(P3(=O)CCN(S(C)(=O)=O)CC3)ncc2n1 [Example 41, 1-(methanesulfonyl)-4-[2-methyl-4-({(1R)-1-[2-methyl-3-(trifluoromethyl)phenyl]ethyl}amino)pyrido[3,4-d]pyrimidin-6-yl]-1,4lambda^5-azaphosphinan-4-one]",174
14,"CC(=O)N1CCP(=O)(c2cc3c(N[C@H](C)c4cccc(C(F)(F)CO)c4F)nc(C)nc3cn2)CC1 [Example 42, 1-acetyl-4-[4-({(1R)-1-[3-(1,1-difluoro-2-hydroxyethyl)-2-fluorophenyl]ethyl}amino)-2-methylpyrido[3,4-d]pyrimidin-6-yl]-1,4lambda^5-azaphosphinan-4-one]",4.87
15,"CC(=O)N1CCP(=O)(c2cc3c(N[C@H](C)c4cccc(C(F)(F)C(=O)O)c4F)nc(C)nc3cn2)CC1 [Example 43, {3-[(1R)-1-{[6-(1-acetyl-4-oxo-1,4lambda^5-azaphosphinan-4-yl)-2-methylpyrido[3,4-d]pyrimidin-4-yl]amino}ethyl]-2-fluorophenyl}(difluoro)acetic acid]",375
16,"CC(=O)N1CCP(=O)(c2cc3c(N[C@H](C)c4cccc(C(F)(F)C(=O)NC5CC5)c4F)nc(C)nc3cn2)CC1 [Example 44, 2-{3-[(1R)-1-{[6-(1-acetyl-4-oxo-1,4lambda^5-azaphosphinan-4-yl)-2-methylpyrido[3,4-d]pyrimidin-4-yl]amino}ethyl]-2-fluorophenyl}-N-cyclopropyl-2,2-difluoroacetamide]",15.9
17,"CC(=O)N1CCP(=O)(c2cc3c(N[C@H](C)c4cccc(C(F)(F)C(=O)N(C)C)c4F)nc(C)nc3cn2)CC1 [Example 45, 2-{3-[(1R)-1-{[6-(1-acetyl-4-oxo-1,4lambda^5-azaphosphinan-4-yl)-2-methylpyrido[3,4-d]pyrimidin-4-yl]amino}ethyl]-2-fluorophenyl}-2,2-difluoro-N,N-dimethylacetamide]",17
18,"CC(=O)N1CCP(=O)(c2cc3c(N[C@H](C)c4cccc(C(F)(F)C(N)=O)c4F)nc(C)nc3cn2)CC1 [Example 46, 2-{3-[(1R)-1-{[6-(1-acetyl-4-oxo-1,4lambda^5-azaphosphinan-4-yl)-2-methylpyrido[3,4-d]pyrimidin-4-yl]amino}ethyl]-2-fluorophenyl}-2,2-difluoroacetamide]",6.1
19,"CNC(=O)C(F)(F)c1cccc([C@@H](C)Nc2nc(C)nc3cnc(P4(=O)CCN(C(C)=O)CC4)cc23)c1F [Example 47, 2-{3-[(1R)-1-{[6-(1-acetyl-4-oxo-1,4lambda^5-azaphosphinan-4-yl)-2-methylpyrido[3,4-d]pyrimidin-4-yl]amino}ethyl]-2-fluorophenyl}-2,2-difluoro-N-methylacetamide]",13.8
20,"Cc1nc(N[C@H](C)c2cccc(C(F)(F)C(N)=O)c2F)c2cc(P(C)(C)=O)ncc2n1 [Example 48, 2-{3-[(1R)-1-{[6-(dimethylphosphoryl)-2-methylpyrido[3,4-d]pyrimidin-4-yl]amino}ethyl]-2-fluorophenyl}-2,2-difluoroacetamide]",29.3
21,"CCNC(=O)C(F)(F)c1cccc([C@@H](C)Nc2nc(C)nc3cnc(P(C)(C)=O)cc23)c1F [Example 49, 2-{3-[(1R)-1-{[6-(dimethylphosphoryl)-2-methylpyrido[3,4-d]pyrimidin-4-yl]amino}ethyl]-2-fluorophenyl}-N-ethyl-2,2-difluoroacetamide]",87.5
22,"Cc1nc(N[C@H](C)c2cccc(C(F)(F)C(=O)N(C)C)c2F)c2cc(P(C)(C)=O)ncc2n1 [Example 50, 2-{3-[(1R)-1-{[6-(dimethylphosphoryl)-2-methylpyrido[3,4-d]pyrimidin-4-yl]amino}ethyl]-2-fluorophenyl}-2,2-difluoro-N,N-dimethylacetamide]",156
23,"CNC(=O)C(F)(F)c1cccc([C@@H](C)Nc2nc(C)nc3cnc(P(C)(C)=O)cc23)c1F [Example 51, 2-{3-[(1R)-1-{[6-(dimethylphosphoryl)-2-methylpyrido[3,4-d]pyrimidin-4-yl]amino}ethyl]-2-fluorophenyl}-2,2-difluoro-N-methylacetamide]",86.3
24,"Cc1nc(N[C@H](C)c2cccc(C(F)F)c2F)c2cc(P3(=O)CCN(C)CC3)ncc2n1 [Example 52, 4-[4-({(1R)-1-[3-(difluoromethyl)-2-fluorophenyl]ethyl}amino)-2-methylpyrido[3,4-d]pyrimidin-6-yl]-1-methyl-1,4lambda^5-azaphosphinan-4-one]",35.5
25,"Cc1nc(N[C@H](C)c2cccc(C(F)(F)F)c2C)c2cc(P3(=O)CCN(C(C)C)CC3)ncc2n1 [Example 53, 4-[2-methyl-4-({(1R)-1-[2-methyl-3-(trifluoromethyl)phenyl]ethyl}amino)pyrido[3,4-d]pyrimidin-6-yl]-1-(propan-2-yl)-1,4lambda^5-azaphosphinan-4-one]",65.4
26,"Cc1nc(N[C@H](C)c2cccc(C(F)(F)C(C)(C)O)c2F)c2cc(P3(=O)CCN(Cc4ccccc4)CC3)ncc2n1 [Example 54, 1-benzyl-4-[4-({(1R)-1-[3-(1,1-difluoro-2-hydroxy-2-methylpropyl)-2-fluorophenyl]ethyl}amino)-2-methylpyrido[3,4-d]pyrimidin-6-yl]-1,4lambda^5-azaphosphinan-4-one]",22.5
